Test results published in patent publication US7034056B2, “Aryl and biaryl compounds having MCH modulatory activity” (Pharmacopeia Drug Discovery, inc., priority 2001, dated 2006).

Target: T1, hMCHR (MCH receptor) (Homo sapiens, UniProt Q99705)
T1 construct: (or internally produced); host or cells: CHO (Chinese hamster ovary) cells, membrane preparation
Test: MCH Assay PCOP Protocol ([125I]-MCH SPA binding to hMCHR-CHO membranes);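 for Activity (Ki range): A 0.4–50 nM B 51–500 nM C 501–2500 nM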
Settings: [125I]-MCH 0.5 nM, hMCHR-CHO membranes; read-out: Activity (ranges of Ki values)
Summary of the method: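 SPA binding with 10 μg hMCHR-CHO membranes and WGA-SPA beads in 25 mM HEPES pH 7.4, 10 mM NaCl, 10 mM MgCl2, 5 mM MnCl2, 0.1% BSA.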

T1 sequence (Q99705 whole entry): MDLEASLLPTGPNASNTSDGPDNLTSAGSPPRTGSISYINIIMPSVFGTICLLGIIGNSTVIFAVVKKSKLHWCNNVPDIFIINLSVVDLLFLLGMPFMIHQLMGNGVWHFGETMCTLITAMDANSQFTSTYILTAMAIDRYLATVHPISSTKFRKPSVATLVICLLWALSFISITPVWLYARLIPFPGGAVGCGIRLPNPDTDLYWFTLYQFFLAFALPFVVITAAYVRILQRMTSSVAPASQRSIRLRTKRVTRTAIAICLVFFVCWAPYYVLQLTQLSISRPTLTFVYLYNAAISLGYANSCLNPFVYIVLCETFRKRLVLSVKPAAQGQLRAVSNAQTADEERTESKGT

Row | Compound | Ki
1 | O=C(NCC(CCNC1CCCC1)c1ccc2c(c1)OCO2)Nc1cc(Cl)cc(Cl)c1 (stereo not shown) [Example 106] | 51 to 500 nM
2 | CC(C)NCCC(CNC(=O)Oc1ccc(Cl)cc1)c1ccc(-c2cccc(C#N)c2)cc1 (racemic) [Example 26, (R,S)-[-2-(3′-Cyano-biphenyl-4-yl)-4-isopropylaminobutyl]-carbamic acid-4-chlorophenyl ester] | 501 to 2500 nM
3 | Cc1ccc(C(CCN2CCC(NC(=O)C3CCC3)C2)CNC(=O)Nc2cc(Cl)cc(Cl)c2)cc1 (stereo not shown) [Example 184] | 51 to 500 nM
4 | COCC(=O)NC1CCN(CCC(CNC(=O)Nc2cc(Cl)cc(Cl)c2)c2ccc(C)cc2)C1 (stereo not shown) [Example 208] | 501 to 2500 nM
5 | O=C(NCC(CCNC1CCCC1)c1cccc(-c2ccc(Cl)c(Cl)c2)c1)Nc1cc(Cl)cc(Cl)c1 (stereo not shown) [Example 157] | 51 to 500 nM
6 | O=C(NCC(CCNCCc1ccc(O)cc1)c1ccc(Cl)c(Cl)c1)Nc1ccc(F)c(F)c1 (stereo not shown) [Example 140] | 501 to 2500 nM
7 | COc1cscc1C(=O)NC1CCN(CCC(CNC(=O)Nc2cc(Cl)cc(Cl)c2)c2ccc(Cl)cc2)CC1 (stereo not shown) [Example 201] | 501 to 2500 nM
8 | CCOC(=O)N1CCC(NCCC(CNC(=O)Nc2cc(Cl)cc(Cl)c2)c2ccc(Cl)cc2)CC1 (stereo not shown) [Example 122] | 51 to 500 nM
9 | O=C(NCC(CCNC1CCCC1)c1ccc(-c2c(F)cccc2F)cc1)Nc1cc(Cl)cc(Cl)c1 (stereo not shown) [Example 100] | 51 to 500 nM
10 | C[N+](C)([O-])CCC(CNC(=O)Nc1cc(Cl)cc(Cl)c1)c1ccc(-c2ccc[n+]([O-])c2)cc1 (stereo not shown) [Example 40] | 501 to 2500 nM
11 | CN(C)CCCNCCC(CNC(=O)Nc1cc(Cl)cc(Cl)c1)c1cccc(-c2cccc(C#N)c2)c1 (stereo not shown) [Example 169] | 501 to 2500 nM
12 | O=C(NCC(CCNC1CCC1)c1ccc(Cl)c(Cl)c1)Nc1ccc(F)c([N+](=O)[O-])c1 (racemic) [Example 22] | 501 to 2500 nM

Same assay, conditions: [125I]-MCH SPA binding, hMCHR-CHO membranes; Ki class ranges; read-out: Activity (range of Ki)

Row | Compound | Ki
13 | O=C(NCC(CCN1CCC(CN2CCCCC2)CC1)c1ccc(Cl)c(Cl)c1)Nc1cc(C(F)(F)F)cc(C(F)(F)F)c1 (stereo not shown) [Example 429] | 501 to 2500 nM

Same assay, conditions: [125I]-MCH binding to hMCHR-CHO membranes; class symbols for ranges of Ki; read-out: Activity (Ki range)

Row | Compound | Ki
14 | CN1CCCC1CCNCCC(CNC(=O)Nc1ccc(Cl)c(Cl)c1)c1ccc(Cl)c(Cl)c1 (stereo not shown) [Example 298] | 501 to 2500 nM
15 | Cc1ccc(NC(=O)NCC(CCN2CCC(N3CCCCC3)CC2)c2ccc(Cl)c(Cl)c2)cc1F (stereo not shown) [Example 361] | 501 to 2500 nM
16 | O=C(NCC(CCNCCc1ccc(O)cc1)c1ccc(Cl)c(Cl)c1)Nc1ccc(Cl)c(Cl)c1 (stereo not shown) [Example 278] | 51 to 500 nM
17 | O=C(NCC(CCN1CCC(N2CCCCC2)CC1)c1ccc(Cl)c(Cl)c1)Nc1ccc(Br)cc1 (stereo not shown) [Example 326] | 501 to 2500 nM
18 | COc1ccc(-c2ccc(C(CCNCCCN(C)C)CNC(=O)Nc3cc(Cl)cc(Cl)c3)cc2)cc1 (stereo not shown) [Example 240] | 51 to 500 nM
19 | O=C(NCc1cc(C(F)(F)F)cc(C(F)(F)F)c1)C(CCNCCc1c[nH]c2ccc(F)cc12)c1ccc(Cl)c(Cl)c1 (stereo not shown) [Example 386] | 501 to 2500 nM
20 | CN(C)CCCNCCC(CNC(=O)Nc1cc(Cl)cc(Cl)c1)c1ccc(-c2ccc(C(F)(F)F)cc2)cc1 (stereo not shown) [Example 255] | 501 to 2500 nM
21 | O=C(NCC(CCNC1CCCC1)c1ccc(-c2ccc(Cl)c(Cl)c2)cc1)Nc1cc(Cl)cc(Cl)c1 (stereo not shown) [Example 245] | 51 to 500 nM
22 | COc1cc(-c2ccc(C(CCNC3CCCC3)CNC(=O)Nc3cc(Cl)cc(Cl)c3)cc2)cc(OC)c1OC (stereo not shown) [Example 228] | 51 to 500 nM
23 | CN(C)C1CCN(CCC(CNC(=O)Nc2ccc(Cl)c(Cl)c2)c2ccc(Cl)c(Cl)c2)C1 (stereo not shown) [Example 291] | 51 to 500 nM
24 | O=C(NCC(CCN1CCNCC1)c1ccc(Cl)c(Cl)c1)Nc1cc(C(F)(F)F)cc(C(F)(F)F)c1 (stereo not shown) [Example 371] | 501 to 2500 nM
25 | Cc1cccc(C(CCNCCCN(C)C)CNC(=O)Nc2cc(C(F)(F)F)cc(C(F)(F)F)c2)c1 (stereo not shown) [Example 347] | 501 to 2500 nM
26 | Cc1ccc(C(CCN2CCCCC2)CNC(=O)Nc2ccc(Cl)c(Cl)c2)cc1 (stereo not shown) [Example 352] | 51 to 500 nM
27 | O=C(NCC(CCN1CCC(N2CCCCC2)CC1)c1ccc(Cl)c(Cl)c1)Nc1cc(Cl)ccc1Cl (stereo not shown) [Example 360] | 501 to 2500 nM
28 | CCNC(=O)NC1CCN(CCC(CNC(=O)Nc2cc(Cl)cc(Cl)c2)c2ccc(Cl)c(Cl)c2)CC1 (stereo not shown) [Example 323] | 501 to 2500 nM
